US11498899B2, “Nitrone herbicides” (FMC Corporation, priority 2016, dated 2022)

Experiments:
[1] = tested on: barnyardgrass (Echinochloa crus-galli); experiment: Test B flooded paddy test, visual rating 0-100; conditions: Flood, 250 g ai/ha, applied to paddy water, rated after 13 to 15 days
[2] = tested on: ducksalad (Heteranthera limosa); experiment: Test B flooded paddy test, visual rating 0-100; conditions: Flood, 250 g ai/ha, applied to paddy water, rated after 13 to 15 days
rice (Oryza sativa) = experiment: Test B flooded paddy test, visual rating 0-100 (0 no effect, 100 complete control); conditions: Flood, 250 g ai/ha, applied to paddy water, rated after 13 to 15 days
[3] = tested on: wheat (Triticum aestivum); experiment: Test A postemergence, visual injury rating 0-100; format: in vivo; conditions: 0 to 100 scale
From the text: (§1) Seeds of plant species selected from barnyardgrass (Echinochloa crus-galli), kochia (Kochia scoparia), ragweed (common ragweed, Ambrosia elatior), ryegrass, Italian (Italian ryegrass, Lolium multiflorum), foxtail, giant (giant foxtail, Setaria faberii), foxtail, green (green foxtail, Setaria viridis), and pigweed (Amaranthus retroflexus) were planted into a blend of loam soil and sand and treated preemergence with a directed soil spray using test chemicals formulated in a non-phytotoxic solvent mixture which included a surfactant.
(§2) At the same time, plants selected from these weed species and also wheat (Triticum aestivum), corn (Zea mays), blackgrass (Alopecurus myosuroides), and galium (catchweed bedstraw, Galium aparine) were planted in pots containing the same blend of loam soil and sand and treated with postemergence applications of test chemicals formulated in the same manner. Plants ranged in height from 2 to 10 cm and were in the one- to two-leaf stage for the postemergence treatment. Treated plants and untreated controls were maintained in a greenhouse for approximately 10 days, after which time all treated plants were compared to untreated controls and visually evaluated for injury. […] A dash (-) response means no test result.

[4] = tested on: ragweed (common ragweed, Ambrosia elatior); experiment: Test A postemergence, visual injury rating 0-100; format: in vivo; conditions: 0 to 100 scale
From the text: as §1, §2

corn (Zea mays) = experiment: Test A postemergence, visual injury rating 0-100; format: in vivo; conditions: 0 to 100 scale
From the text: as §1, §2

[5] = tested on: pigweed (Amaranthus retroflexus); experiment: Test A postemergence, visual injury rating 0-100; format: in vivo; conditions: 0 to 100 scale
From the text: as §1, §2

[6] = tested on: galium (catchweed bedstraw, Galium aparine); experiment: Test A postemergence, visual injury rating 0-100; format: in vivo; conditions: 0 to 100 scale
From the text: as §1, §2

[7] = tested on: ryegrass, Italian (Italian ryegrass, Lolium multiflorum); experiment: Test A postemergence, visual injury rating 0-100; format: in vivo; conditions: 0 to 100 scale
From the text: as §1, §2

[8] = tested on: foxtail, giant (giant foxtail, Setaria faberii); experiment: Test A postemergence, visual injury rating 0-100; format: in vivo; conditions: 0 to 100 scale
From the text: as §1, §2

[9] = tested on: blackgrass (Alopecurus myosuroides); experiment: Test A postemergence, visual injury rating 0-100; format: in vivo; conditions: 0 to 100 scale
From the text: as §1, §2

kochia (Kochia scoparia) [10] = experiment: Test A postemergence, visual injury rating 0-100; format: in vivo; conditions: 0 to 100 scale
From the text: as §1, §2

[11] = tested on: barnyardgrass (Echinochloa crus-galli); experiment: Test A postemergence, visual injury rating 0-100; format: in vivo; conditions: 0 to 100 scale
From the text: as §1, §2

[12] = tested on: ragweed (common ragweed, Ambrosia elatior); experiment: Test A preemergence, visual injury rating 0-100; format: in vivo
[13] = tested on: pigweed (Amaranthus retroflexus); experiment: Test A preemergence, visual injury rating 0-100; format: in vivo
[14] = tested on: ryegrass, Italian (Italian ryegrass, Lolium multiflorum); experiment: Test A preemergence, visual injury rating 0-100; format: in vivo
[15] = tested on: foxtail, giant (giant foxtail, Setaria faberii); experiment: Test A preemergence, visual injury rating 0-100; format: in vivo
kochia (Kochia scoparia) [16] = experiment: Test A preemergence, visual injury rating 0-100; format: in vivo
[17] = tested on: barnyardgrass (Echinochloa crus-galli); experiment: Test A preemergence, visual injury rating 0-100 (0 no effect, 100 complete control); format: in vivo

| SMILES | Barnyardgrass plant response rating (0 to 100 scale) [1] | Ducksalad plant response rating (0 to 100 scale) [2] | Rice plant response rating (0 to 100 scale) (rice (Oryza sativa)) | Wheat plant response rating ([3]; 125 g ai/ha) | Wheat plant response rating ([3]; 500 g ai/ha) | Ragweed plant response rating ([4]; 125 g ai/ha) | Ragweed plant response rating ([4]; 500 g ai/ha) | Corn plant response rating (corn (Zea mays); 125 g ai/ha) | Corn plant response rating (corn (Zea mays); 500 g ai/ha) | Pigweed plant response rating ([5]; 125 g ai/ha) | Pigweed plant response rating ([5]; 500 g ai/ha) | Galium plant response rating ([6]; 125 g ai/ha) | Galium plant response rating ([6]; 500 g ai/ha) | Ryegrass, Italian plant response rating ([7]; 125 g ai/ha) | Ryegrass, Italian plant response rating ([7]; 500 g ai/ha) | Foxtail, Giant plant response rating ([8]; 125 g ai/ha) | Foxtail, Giant plant response rating ([8]; 500 g ai/ha) | Blackgrass plant response rating ([9]; 125 g ai/ha) | Blackgrass plant response rating ([9]; 500 g ai/ha) | Kochia plant response rating (kochia (Kochia scoparia) [10]; 125 g ai/ha) | other results |
| --- | --- | --- | --- | --- | --- | --- | --- | --- | --- | --- | --- | --- | --- | --- | --- | --- | --- | --- | --- | --- | --- |
| CC1=[N+]([O-])C(C(=O)Nc2cccc(F)c2F)C(c2cccc(C)n2)C1 (racemic) [Compound 49] | 0 | 0 | 0 | 0 | 0 | 20 | 20 | 0 | 0 | 0 | 0 | 0 | 0 | 0 | 30 | 0 | 0 | 0 | 0 | 0 | Kochia plant response rating (kochia (Kochia scoparia) [10]; 500 g ai/ha): 0; Barnyardgrass plant response rating ([11]; 125 g ai/ha): 0; Barnyardgrass plant response rating ([11]; 500 g ai/ha): 0; Ragweed plant response rating (0 to 100 scale) ([12]; 125 g ai/ha): 0; Ragweed plant response rating (0 to 100 scale) ([12]; 500 g ai/ha): 0; Pigweed plant response rating (0 to 100 scale) ([13]; 125 g ai/ha): 0; Pigweed plant response rating (0 to 100 scale) ([13]; 500 g ai/ha): 0; Ryegrass, Italian plant response rating (0 to 100 scale) ([14]; 125 g ai/ha): 0; Ryegrass, Italian plant response rating (0 to 100 scale) ([14]; 500 g ai/ha): 20; Foxtail, Giant plant response rating (0 to 100 scale) ([15]; 125 g ai/ha): 0; Foxtail, Giant plant response rating ([15]; 500 g ai/ha, 0 to 100 scale): 40; Kochia plant response rating (0 to 100 scale) (kochia (Kochia scoparia) [16]; 125 g ai/ha): 0; Kochia plant response rating (0 to 100 scale) (kochia (Kochia scoparia) [16]; 500 g ai/ha): 0; Barnyardgrass plant response rating (0 to 100 scale) ([17]; 125 g ai/ha): 10; Barnyardgrass plant response rating ([17]; 500 g ai/ha, 0 to 100 scale): 20 |
| CC1=[N+]([O-])C(C(=O)Nc2cccc(F)c2F)C(c2cc(F)cc(Oc3ccc(Cl)nc3)c2)C1 (racemic) [Compound 50] | 0 | 0 | 0 | 0 | 0 | 0 | 40 | 0 | 40 | 0 | 60 | 0 | 30 | 0 | 20 | 10 | 50 | 40 | 70 | 0 | Kochia plant response rating (kochia (Kochia scoparia) [10]; 500 g ai/ha): 50; Barnyardgrass plant response rating ([11]; 125 g ai/ha): 0; Barnyardgrass plant response rating ([11]; 500 g ai/ha): 50; Ragweed plant response rating (0 to 100 scale) ([12]; 125 g ai/ha): 0; Ragweed plant response rating (0 to 100 scale) ([12]; 500 g ai/ha): 0; Pigweed plant response rating (0 to 100 scale) ([13]; 125 g ai/ha): 0; Pigweed plant response rating (0 to 100 scale) ([13]; 500 g ai/ha): 40; Ryegrass, Italian plant response rating (0 to 100 scale) ([14]; 125 g ai/ha): 0; Ryegrass, Italian plant response rating (0 to 100 scale) ([14]; 500 g ai/ha): 80; Foxtail, Giant plant response rating (0 to 100 scale) ([15]; 125 g ai/ha): 90; Foxtail, Giant plant response rating (0 to 100 scale) ([15]; 500 g ai/ha): 90; Kochia plant response rating (0 to 100 scale) (kochia (Kochia scoparia) [16]; 125 g ai/ha): 30; Kochia plant response rating (0 to 100 scale) (kochia (Kochia scoparia) [16]; 500 g ai/ha): 70; Barnyardgrass plant response rating (0 to 100 scale) ([17]; 125 g ai/ha): 50; Barnyardgrass plant response rating (0 to 100 scale) ([17]; 500 g ai/ha): 90 |
